# Measurements: patent US7138361B2, “Herbicidal heterocycles” (E. I. du Pont de Nemours and Company, priority 2000, dated 2006)
# How the values were obtained:
# Format in all cases: in vivo
# Sunflower [1] = assay: Test C preemergence; details: Rate 500 g/ha, visual evaluation after 12 to 14 days
# wild oat (Avena fatua) = assay: Test B postemergence; details: 13 to 15 days
# Outline: (§1)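 Visual injury scores, 0 = no effect to 100 = complete control, assigned against controls after 13 to 15 days in the greenhouse. Compounds formulated in non-phytotoxic solvent plus surfactant and applied to soil after planting (pre) or onto foliage of 1- to 4-leaf plants (post).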
# [2] = test system: cocklebur (Xanthium strumarium); assay: Test B postemergence; details: 13 to 15 days
# Outline: as §1
# [3] = test system: velvetleaf (Abutilon theophrasti); assay: Test B postemergence; details: 13 to 15 days
# Outline: as §1
# [4] = test system: Surinam grass (Brachiaria decumbens); assay: Test B postemergence; details: 13 to 15 days
# Outline: as §1
# [5] = test system: barnyardgrass (Echinochloa crus-galli); assay: Test B postemergence; details: 13 to 15 days
# Outline: as §1
# [6] = test system: crabgrass (Digitaria sanguinalis); assay: Test B postemergence; details: 13 to 15 days
# Outline: as §1
# [7] = test system: lambsquarters (Chenopodium album); assay: Test B postemergence; details: 13 to 15 days
# Outline: as §1
# [8] = test system: giant foxtail (Setaria faberii); assay: Test B postemergence; details: 13 to 15 days
# Outline: as §1
# [9] = test system: morning glory (Ipomoea hederacea); assay: Test B postemergence; details: 13 to 15 days
# Outline: as §1
# corn (Zea mays) [10] = assay: Test B postemergence; details: 13 to 15 days
# Outline: as §1
# [11] = test system: wheat (Triticum aestivum); assay: Test B postemergence; details: 13 to 15 days
# Outline: as §1
# [12] = test system: pigweed (Amaranthus retroflexus); assay: Test B postemergence; details: 13 to 15 days
# Outline: as §1
# [13] = test system: blackgrass (Alopecurus myosuroides); assay: Test B postemergence; details: 13 to 15 days
# Outline: as §1
# [14] = test system: johnsongrass (Sorghum halepense); assay: Test C preemergence; details: for Plant response rating, Johnsongrass: scale 0 to 100, 0 no effect, 100 complete control; for Plant response rating (0 to 100), Johnsongrass: preemergence, visual evaluation after 12 to 14 days
# Outline: (§2)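 Seeds are planted and treated before emergence; for the postemergence test, plants at 1- to 4-leaf stage (2–18 cm) receive the same formulation, a solvent blend containing surfactant. Plants stay in the greenhouse 12–14 days, then response is scored visually from 0 (none) to 100 (complete control).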
# [15] = test system: velvetleaf (Abutilon theophrasti); assay: Test C preemergence; details: for Plant response rating, Velvetleaf: scale 0 to 100, 0 no effect, 100 complete control; for Plant response rating (0 to 100), Velvetleaf: Rate 500 g/ha, visual evaluation after 12 to 14 days
# Outline: as §2
# kochia (Kochia scoparia) = assay: Test C preemergence; details: for Plant response rating, Kochia: scale 0 to 100, 0 no effect, 100 complete control; for Plant response rating (0 to 100), Kochia: preemergence, visual evaluation after 12 to 14 days
# Outline: as §2
# [16] = test system: bermudagrass (Cynodon dactylon); assay: Test C preemergence; details: for Plant response rating, Bermudagrass: scale 0 to 100, 0 no effect, 100 complete control; for Plant response rating (0 to 100 where 0 is no effect and 100 is complete control), Bermudagrass: preemergence, visual evaluation after 12 to 14 days
# Outline: as §2
# [17] = test system: giant foxtail (Setaria faberii); assay: Test C preemergence; details: for Plant response rating, Foxtail, Giant: scale 0 to 100, 0 no effect, 100 complete control; for Plant response rating (0 to 100), Foxtail, Giant: preemergence, visual evaluation after 12 to 14 days
# Outline: as §2
# corn (Zea mays) [18] = assay: Test C preemergence; details: for Plant response rating, Corn: scale 0 to 100, 0 no effect, 100 complete control; for Plant response rating (0 to 100), Corn: preemergence, visual evaluation after 12 to 14 days
# Outline: as §2
# [19] = test system: morningglory (Ipomoea hederacea); assay: Test C preemergence; details: for Plant response rating, Morningglory: scale 0 to 100, 0 no effect, 100 complete control; for Plant response rating (0 to 100), Morningglory: Rate 500 g/ha, visual evaluation after 12 to 14 days
# Outline: as §2
# [20] = test system: yellow nutsedge (Cyperus esculentus); assay: Test C preemergence; details: for Plant response rating, Nutsedge: scale 0 to 100, 0 no effect, 100 complete control; for Plant response rating (0 to 100), Nutsedge: Rate 500 g/ha, visual evaluation after 12 to 14 days
# Outline: as §2
# Sunflower [21] = assay: Test C preemergence; details: Rate 125 g/ha; scale 0 to 100, 0 no effect, 100 complete control
# [22] = Rate 125 g/ha, scale 0 (no effect) to 100 (complete control)
# [23] = Rate 500 g/ha, scale 0 to 100, 0 is no effect, 100 is complete control
smiles,measurement,setting,value
CC(C)(C)c1ccn(C2CCN(c3cccc(OC(F)F)c3)C2=O)n1 (stereo not shown) [Compound 76],"Plant response rating (0 to 100), Sunflower",Sunflower [1],30
same,"Plant response rating, Wild Oat",wild oat (Avena fatua); [22],0
same,"Plant response rating, Wild Oat",wild oat (Avena fatua); [23],0
same,"Plant response rating, Cocklebur",[2]; [22],0
same,"Plant response rating, Cocklebur",[2]; [23],20
same,"Plant response rating, Velvetleaf",[3]; [22],0
same,"Plant response rating, Velvetleaf",[3]; [23],0
same,"Plant response rating, Surinam grass",[4]; [22],0
same,"Plant response rating, Surinam grass",[4]; [23],10
same,"Plant response rating, Barnyardgrass",[5]; [22],0
same,"Plant response rating, Barnyardgrass",[5]; [23],90
same,"Plant response rating, Crabgrass",[6]; [22],0
same,"Plant response rating, Crabgrass",[6]; [23],40
same,"Plant response rating, Lambsquarters",[7]; [22],0
same,"Plant response rating, Lambsquarters",[7]; [23],40
same,"Plant response rating, Foxtail, Giant",[8]; [22],0
same,"Plant response rating, Foxtail, Giant",[8]; [23],30
same,"Plant response rating, Morningglory",[9]; [22],0
same,"Plant response rating, Morningglory",[9]; [23],20
same,"Plant response rating, Corn",corn (Zea mays) [10]; [22],0
same,"Plant response rating, Corn",corn (Zea mays) [10]; [23],0
same,"Plant response rating, Wheat",[11]; [22],0
same,"Plant response rating, Wheat",[11]; [23],0
same,"Plant response rating, Pigweed",[12]; [22],30
same,"Plant response rating, Pigweed",[12]; [23],80
same,"Plant response rating, Blackgrass",[13]; [22],0
same,"Plant response rating, Blackgrass",[13]; [23],0
same,"Plant response rating, Johnsongrass",[14]; Rate 62 g/ha,20
same,"Plant response rating, Johnsongrass",[14]; Rate 125 g/ha,30
same,"Plant response rating (0 to 100), Johnsongrass",[14]; Rate 250 g/ha,40
same,"Plant response rating (0 to 100), Johnsongrass",[14]; Rate 500 g/ha,100
same,"Plant response rating, Velvetleaf",[15]; Rate 125 g/ha,20
same,"Plant response rating (0 to 100), Velvetleaf",[15]; preemergence,50
same,"Plant response rating, Velvetleaf","[15]; preemergence, Rate 250 g/ha",20
same,"Plant response rating, Kochia",kochia (Kochia scoparia); Rate 62 g/ha,100
same,"Plant response rating, Kochia",kochia (Kochia scoparia); Rate 125 g/ha,100
same,"Plant response rating (0 to 100), Kochia",kochia (Kochia scoparia); Rate 250 g/ha,100
same,"Plant response rating (0 to 100), Kochia",kochia (Kochia scoparia); Rate 500 g/ha,100
same,"Plant response rating, Bermudagrass",[16]; Rate 62 g/ha,100
same,"Plant response rating, Bermudagrass",[16]; Rate 125 g/ha,100
same,"Plant response rating (0 to 100 where 0 is no effect and 100 is complete control), Bermudagrass",[16]; Rate 250 g/ha,100
same,"Plant response rating (0 to 100 where 0 is no effect and 100 is complete control), Bermudagrass",[16]; Rate 500 g/ha,100
same,"Plant response rating, Foxtail, Giant",[17]; Rate 62 g/ha,100
same,"Plant response rating, Foxtail, Giant",[17]; Rate 125 g/ha,100
same,"Plant response rating (0 to 100), Foxtail, Giant",[17]; Rate 250 g/ha,20
same,"Plant response rating (0 to 100), Foxtail, Giant",[17]; Rate 500 g/ha,90
same,"Plant response rating, Corn",corn (Zea mays) [18]; Rate 62 g/ha,20
same,"Plant response rating, Corn",corn (Zea mays) [18]; Rate 125 g/ha,20
same,"Plant response rating (0 to 100), Corn",corn (Zea mays) [18]; Rate 250 g/ha,20
same,"Plant response rating (0 to 100), Corn",corn (Zea mays) [18]; Rate 500 g/ha,80
same,"Plant response rating, Morningglory",[19]; Rate 62 g/ha,10
same,"Plant response rating, Morningglory",[19]; Rate 125 g/ha,30
same,"Plant response rating (0 to 100), Morningglory",[19]; preemergence,30
same,"Plant response rating, Morningglory","[19]; preemergence, Rate 250 g/ha",30
same,"Plant response rating, Nutsedge",[20]; Rate 62 g/ha,0
same,"Plant response rating, Nutsedge",[20]; Rate 125 g/ha,0
same,"Plant response rating (0 to 100), Nutsedge",[20]; preemergence,20
same,"Plant response rating, Nutsedge","[20]; preemergence, Rate 250 g/ha",20
same,"Plant response rating, Sunflower",Sunflower [21],20
CCC(C)c1ccn(C2CCN(c3cccc(OC(C)C)c3)C2=O)n1 (stereo not shown) [Compound 83],"Plant response rating (0 to 100), Sunflower",Sunflower [1],70
same,"Plant response rating, Wild Oat",wild oat (Avena fatua); [22],0
same,"Plant response rating, Wild Oat",wild oat (Avena fatua); [23],0
same,"Plant response rating, Cocklebur",[2]; [22],10
same,"Plant response rating, Cocklebur",[2]; [23],10
same,"Plant response rating, Velvetleaf",[3]; [22],0
same,"Plant response rating, Velvetleaf",[3]; [23],0
same,"Plant response rating, Surinam grass",[4]; [22],0
same,"Plant response rating, Surinam grass",[4]; [23],0
same,"Plant response rating, Barnyardgrass",[5]; [22],0
same,"Plant response rating, Barnyardgrass",[5]; [23],0
same,"Plant response rating, Crabgrass",[6]; [22],0
same,"Plant response rating, Crabgrass",[6]; [23],0
same,"Plant response rating, Lambsquarters",[7]; [22],10
same,"Plant response rating, Lambsquarters",[7]; [23],60
same,"Plant response rating, Foxtail, Giant",[8]; [22],0
same,"Plant response rating, Foxtail, Giant",[8]; [23],0
same,"Plant response rating, Morningglory",[9]; [22],0
same,"Plant response rating, Morningglory",[9]; [23],10
same,"Plant response rating, Corn",corn (Zea mays) [10]; [22],0
same,"Plant response rating, Corn",corn (Zea mays) [10]; [23],0
same,"Plant response rating, Wheat",[11]; [22],0
same,"Plant response rating, Wheat",[11]; [23],0
same,"Plant response rating, Pigweed",[12]; [22],0
same,"Plant response rating, Pigweed",[12]; [23],10
same,"Plant response rating, Blackgrass",[13]; [22],0
same,"Plant response rating, Blackgrass",[13]; [23],0
same,"Plant response rating, Johnsongrass",[14]; Rate 62 g/ha,20
same,"Plant response rating, Johnsongrass",[14]; Rate 125 g/ha,30
same,"Plant response rating (0 to 100), Johnsongrass",[14]; Rate 250 g/ha,30
same,"Plant response rating (0 to 100), Johnsongrass",[14]; Rate 500 g/ha,30
same,"Plant response rating, Velvetleaf",[15]; Rate 125 g/ha,30
same,"Plant response rating (0 to 100), Velvetleaf",[15]; preemergence,40
same,"Plant response rating, Velvetleaf","[15]; preemergence, Rate 250 g/ha",0
same,"Plant response rating, Kochia",kochia (Kochia scoparia); Rate 62 g/ha,60
same,"Plant response rating, Kochia",kochia (Kochia scoparia); Rate 125 g/ha,90
same,"Plant response rating (0 to 100), Kochia",kochia (Kochia scoparia); Rate 250 g/ha,90
same,"Plant response rating (0 to 100), Kochia",kochia (Kochia scoparia); Rate 500 g/ha,100
same,"Plant response rating, Bermudagrass",[16]; Rate 62 g/ha,100
same,"Plant response rating, Bermudagrass",[16]; Rate 125 g/ha,100
same,"Plant response rating (0 to 100 where 0 is no effect and 100 is complete control), Bermudagrass",[16]; Rate 250 g/ha,100
same,"Plant response rating (0 to 100 where 0 is no effect and 100 is complete control), Bermudagrass",[16]; Rate 500 g/ha,100
same,"Plant response rating, Foxtail, Giant",[17]; Rate 62 g/ha,0
same,"Plant response rating, Foxtail, Giant",[17]; Rate 125 g/ha,100
same,"Plant response rating (0 to 100), Foxtail, Giant",[17]; Rate 250 g/ha,60
same,"Plant response rating (0 to 100), Foxtail, Giant",[17]; Rate 500 g/ha,0
same,"Plant response rating, Corn",corn (Zea mays) [18]; Rate 62 g/ha,0
same,"Plant response rating, Corn",corn (Zea mays) [18]; Rate 125 g/ha,0
same,"Plant response rating (0 to 100), Corn",corn (Zea mays) [18]; Rate 250 g/ha,0
same,"Plant response rating (0 to 100), Corn",corn (Zea mays) [18]; Rate 500 g/ha,10
same,"Plant response rating, Morningglory",[19]; Rate 62 g/ha,0
same,"Plant response rating, Morningglory",[19]; Rate 125 g/ha,0
same,"Plant response rating (0 to 100), Morningglory",[19]; preemergence,0
same,"Plant response rating, Morningglory","[19]; preemergence, Rate 250 g/ha",0
same,"Plant response rating, Nutsedge",[20]; Rate 62 g/ha,0
same,"Plant response rating, Nutsedge",[20]; Rate 125 g/ha,0
same,"Plant response rating (0 to 100), Nutsedge",[20]; preemergence,0
same,"Plant response rating, Nutsedge","[20]; preemergence, Rate 250 g/ha",0
same,"Plant response rating, Sunflower",Sunflower [21],30
